Data on 15 compounds can be found in ChEMBL document CHEMBL5223086, “Recent Progress and Clinical Development of Inhibitors that Block MDM4/p53 Protein-Protein Interactions” (J Med Chem, 2021).

Peptide text beside a SMILES is read from it. Some results are limits rather than exact numbers.

For test [1], the target named is T1, Tumour suppressor protein p53/Mdm4 (Homo sapiens, UniProt O15151+P04637). Kind of test: Inhibition of human MDM4/p53 interaction by TR-FRET assay. It counts as protein assay. Background: In TR-FRET formats the signal depends on donor and acceptor labels being close together.
Test [2] deals with T2, Protein Mdm4 (Homo sapiens, UniProt O15151).
T2 sequence (O15151 whole entry): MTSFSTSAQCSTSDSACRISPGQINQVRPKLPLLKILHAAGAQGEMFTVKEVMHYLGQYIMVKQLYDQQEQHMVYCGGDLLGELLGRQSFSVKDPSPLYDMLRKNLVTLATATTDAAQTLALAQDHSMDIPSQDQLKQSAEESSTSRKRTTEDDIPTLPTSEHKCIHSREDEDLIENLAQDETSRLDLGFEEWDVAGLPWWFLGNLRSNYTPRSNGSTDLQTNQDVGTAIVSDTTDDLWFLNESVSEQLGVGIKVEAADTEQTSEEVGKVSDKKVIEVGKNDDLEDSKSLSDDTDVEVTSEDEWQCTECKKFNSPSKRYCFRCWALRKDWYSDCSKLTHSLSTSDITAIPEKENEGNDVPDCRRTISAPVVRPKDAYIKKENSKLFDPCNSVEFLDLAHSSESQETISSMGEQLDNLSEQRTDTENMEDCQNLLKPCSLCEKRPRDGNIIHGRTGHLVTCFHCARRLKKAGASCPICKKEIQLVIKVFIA
Briefly: Binding affinity to human MDM4 assessed as inhibition constant.

Test [3] addresses T3, E3 ubiquitin-protein ligase Mdm2 (Homo sapiens, UniProt Q00987). Kind of test: Inhibition of human MDM2 by TR-FRET assay.
Test [4] deals with T1, Tumour suppressor protein p53/Mdm4. Briefly: Inhibition of human MDM4/p53 interaction by FP assay. Type of test: protein assay.
Test [5] deals with T2, Protein Mdm4. Briefly: Inhibition of human MDM4 by TR-FRET assay.
The target of test [6] is T2, Protein Mdm4. Briefly: Inhibition of human his-tagged MDM4 assessed as dissociation constant by ITC assay. A general note: Isothermal titration calorimetry measures the heat released or taken up as one component is titrated into another.
In test [7] the test system is MCF7. Kind of test: Anticancer activity against human MCF7 cells assessed as cell viability at 30 mg/kg by MTT assay relative to contol. The note with it: MCF7, read-out: TGI.
Test [8] addresses T3, E3 ubiquitin-protein ligase Mdm2. Kind of test: Inhibition of human MDM2.
For test [9], the target named is T2, Protein Mdm4. Briefly: Inhibition of human MDM4.
In test [10] the target is T3, E3 ubiquitin-protein ligase Mdm2. Kind of test: Binding affinity to human MDM2 assessed as dissociation constant.
Test [11] concerns the target T1, Tumour suppressor protein p53/Mdm4. Kind of test: Inhibition of human MDM4/p53 interaction by SPR analysis. Type of test: protein assay.
For test [12], the target named is T2, Protein Mdm4. Kind of test: Inhibition of MDM4 assessed as dissociation constant.
The test system of test [13] is MCF7. Kind of test: Anticancer activity against […] relative to contol. It counts as functional. The settings on record: read-out: TGI. In general terms: Tetrazolium assays rely on reduction of a dye to a coloured formazan, in cell work by metabolically active cells.
For test [14], the target named is T2, Protein Mdm4. Briefly: Inhibition of human MDM4 by ELISA assay.

T1 sequence (P04637 whole entry, one chain of several): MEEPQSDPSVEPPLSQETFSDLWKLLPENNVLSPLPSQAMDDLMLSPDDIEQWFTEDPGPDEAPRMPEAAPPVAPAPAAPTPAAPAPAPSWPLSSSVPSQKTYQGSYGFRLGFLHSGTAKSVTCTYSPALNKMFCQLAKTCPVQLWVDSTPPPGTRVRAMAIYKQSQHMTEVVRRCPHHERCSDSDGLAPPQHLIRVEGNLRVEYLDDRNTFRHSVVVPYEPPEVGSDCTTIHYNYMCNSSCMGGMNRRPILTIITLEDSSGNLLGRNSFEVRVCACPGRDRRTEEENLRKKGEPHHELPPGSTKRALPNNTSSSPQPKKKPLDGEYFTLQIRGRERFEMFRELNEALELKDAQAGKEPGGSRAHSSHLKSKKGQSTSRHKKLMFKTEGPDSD
T3 sequence (Q00987 whole entry): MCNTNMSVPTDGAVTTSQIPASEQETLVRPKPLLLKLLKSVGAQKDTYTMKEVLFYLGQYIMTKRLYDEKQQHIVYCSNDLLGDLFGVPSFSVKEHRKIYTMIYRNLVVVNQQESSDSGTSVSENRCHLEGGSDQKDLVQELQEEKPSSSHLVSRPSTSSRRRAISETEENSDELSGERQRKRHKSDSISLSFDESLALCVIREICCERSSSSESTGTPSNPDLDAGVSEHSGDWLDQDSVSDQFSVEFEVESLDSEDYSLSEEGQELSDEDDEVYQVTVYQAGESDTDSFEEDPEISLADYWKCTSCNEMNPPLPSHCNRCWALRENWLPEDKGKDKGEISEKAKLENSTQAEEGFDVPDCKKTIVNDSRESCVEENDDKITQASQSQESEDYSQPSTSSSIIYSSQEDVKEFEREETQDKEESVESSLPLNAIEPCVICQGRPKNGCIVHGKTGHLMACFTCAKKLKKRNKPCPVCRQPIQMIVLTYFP

What is called IC50 is the concentration that inhibits the measured activity by half. Regarding `COc1nc(N(C)C)ncc1-c1nc2c(n1C(C)C)[C@H](c1ccc(C#N)cc1)N(c1cc(Cl)cn(C)c1=O)C2=O`, the 50% inhibitory concentration (IC50) in test [1] stood at 1300 nM.

On to `COc1ncc(-c2nc3c(n2C(C)C)C(c2ccc(Cl)cc2)N(c2cc(Cl)cn(C)c2=O)C3=O)c(OC)n1` (stereo unspecified), for which the IC50 on Protein Mdm4 [2] came to 3000 nM. The compound `COc1cccc2c(C(=O)N[C@H]3CCN(c4ccc(C)cc4)C3)c[nH]c12` displayed an IC50 in [3] above 50000 nM. Usually Ki stands for the equilibrium dissociation constant of an inhibitor or competing ligand from its target. As to `Cc1cc(Cl)ccc1NCc1ccc(CN(C=O)C(C(=O)NC(C)(C)C)c2c(C(=O)O)[nH]c3cc(Cl)ccc23)cc1` (stereo unspecified), the Ki in [4] is 3730 nM. `C[C@@H](c1cccc(Cl)c1)n1cnc(-c2ccccc2)c1-c1c(C(=O)Nc2cc(C(=O)O)ccc2N2CCC(N3CCCOC3=O)CC2)[nH]c2cc(Cl)ccc12` yielded an IC50 against Protein Mdm4 [5] of 17 nM. Broadly, the Kd is the constant that tells how readily two partners part at equilibrium. For the compound `CC(C)(C)Oc1cc(C(=O)CC(N)=O)ccc1C1=N[C@@H](c2ccc(C(=O)O)cc2)[C@@H](c2c[nH]c3ccccc23)N1C(=O)N1CCNC(=O)C1`, on Protein Mdm4 [6], the Kd worked out at 27 nM. Turning to `CC(=O)N[C@@H](CC(C)C)C(=O)N[C@H](C(=O)N[C@@H](Cc1ccccc1)C(=O)N[C@]1(C)CCCCCC/C=C/CCC[C@@](C)(C(=O)N[C@@H](C)C(=O)N[C@@H](C)C(=O)N[C@@H](C)C(=O)N[C@@H](C)C(=O)N[C@H](C)C(N)=O)NC(=O)[C@H](CC(C)C)NC(=O)[C@H](CCC(N)=O)NC(=O)[C@H](C)NC(=O)[C@H](Cc2c[nH]c3ccccc23)NC(=O)[C@H](Cc2ccc(O)cc2)NC(=O)[C@H](C)NC1=O)[C@@H](C)O`, the inhibition in vivo at 30 mg/kg in the test on MCF7 [7] turned out to be 61%. The EC50 is the concentration that produces a half-maximal response. Low readings indicate an effect from little substance, high ones a need for much substance. As to `COOc1cc(/C=C2\C(=O)N(c3ccccc3)N=C2C)cc(Cl)c1OCC(=O)OC`, the EC50 in test [8] was determined as 26000 nM; at Protein Mdm4 [9], 2300 nM.

The compound `COc1ncc(-c2nc3c(n2C(C)C)[C@H](c2ccc(C#N)cc2)N([C@@H](C)c2cccc(Cl)c2)C3=O)c(OC)n1` displayed an IC50 in [1] of 580 nM. With `C[C@@H](c1cccc(Cl)c1)n1cnc(-c2ccccc2)c1-c1c(C(=O)NCCN2CCN(C3CCCCC3)CC2)[nH]c2cc(Cl)ccc12`, on Protein Mdm4 [5], half-maximal inhibition (IC50) required 145 nM.

In the case of `O=C(CN(Cc1ccc(Cl)cc1)C(=O)c1cc2ccccc2[nH]1)NC1CCCCC1`, the Ki in test [10] stood at 5500 nM. `CC(C)C[C@H](NC(=O)[C@H](CS)NC(=O)[C@H](CCCNC(=N)N)NC(=O)[C@H](Cc1c[nH]c2ccccc12)NC(=O)[C@H](Cc1ccc(O)cc1)NC(=O)[C@H](CS)NC(=O)[C@H](CC(C)C)NC(=O)[C@H](Cc1ccccc1)NC(=O)[C@@H](NC(=O)[C@H](CCC(=O)O)NC(=O)[C@@H]1CCCN1C(=O)[C@H](C)NC(=O)[C@H](CCCCN)NC(=O)[C@H](CS)NC(=O)[C@H](CC(N)=O)NC(=O)[C@@H](N)CS)[C@@H](C)O)C(=O)N[C@@H](CCC(N)=O)C(=O)N[C@@H](Cc1c[nH]cn1)C(N)=O` (H-CNCKAPETFLCYWRCLQH-NH2) returned an IC50 in test [11] of 11.4 nM. On to `COc1cc(C(=O)O)ccc1NC(=O)[C@@H]1N[C@@H](CC(C)(C)C)[C@](C#N)(c2ccc(Cl)cc2F)[C@H]1c1cccc(Cl)c1F` [IDASANUTLIN], for which the Kd on Protein Mdm4 [12] is below 100 nM. For `CCOc1cc(C(C)(C)C)ccc1C1=N[C@@](C)(c2ccc(Cl)cc2)[C@@](C)(c2ccc(Cl)cc2)N1C(=O)N1CCN(CCCS(C)(=O)=O)CC1` [RO-5045337], the inhibition in vivo with MCF7 [13] came out at 61%. Regarding H-ETFEHWWSQLLS-OH, at Protein Mdm4 [14], the half-inhibitory concentration (IC50) is 110 nM.
